Several values for one entry are separate records, joined by “and”; a condition that tells them apart may be missing. Equal entries are not always repeated. Ends that are not written are not given here.
Columns and labels:
DMPC:DMPG liposomes = assay: Isothermal titration calorimetry, peptide-liposome interaction; format: binding; settings: ITC, PBS, 37 °C
Protocol: Liposomes were prepared using 1,2-dimyristoyl-sn-glycero-3-(phospho-rac-(1-glycerol)) (sodium salt) (DMPG) (Avanti, Alabama, USA); 1,2-dimyristoyl-sn-glycero-3-phosphocholine (DMPC) (Avanti); and cholesterol (Sigma, Darmstadt, Germany) were used. Bacterial membrane mimic DMPC/DMPG (7/3) unilamellar vesicles (LUVs), and mammalian membrane mimic DMPC/cholesterol (10/1) vesicles with 100-nm diameters were prepared using the freeze-thaw and extrusion method. Lipids were mixed and dissolved in methanol in round-bottomed flasks then evaporated and freeze-dried overnight, yielding a thin layer of lipid covering the glass wall. PBS was added to the lipid layer, after which the PBS-lipid layer was vortexed then frozen in liquid nitrogen and thawed in 50 °C water repeatedly until no visible layer remained. LiposoFast Liposome Factory Basic unit with stabilizer (Avestin, Ottawa, Canada) was then used to extrude the liposomes 50 times through a polycarbonate membrane filter (pore diameter, 100 nm; filter diameter, 0.75 inches) (Avestin). For circular dichroism, isothermal titration calorimetry, tryptophan fluorescence, and dynamic light scattering experiments, liposomes were reconstructed and resuspended in PBS (Welgene Inc, Gyeongsangbuk-do, Korea).
PC/PG liposome stock solutions and peptide solutions were diluted in PBS and degassed for 30 min. Peptide solutions (2 ml, 40 μM) were then loaded into a VP-ITC MicroCalorimeter (MicroCal, Northampton, USA). Liposome samples (600 μl, 2000 μM) were injected into the VP-ITC using a syringe. Measurement parameters were as follows: cell temperature, 37 °C; total injections, 30; reference power, 10; initial delay, 300; stirring speed, 300; edit mode, 10.0/12.0/200/2. Liposome solution (10 μl) was injected into the peptide solution 30 times. Each experiment was performed in duplicate. The results were calculated using MicroCal analysis.

MDR P. aeruginosa = assay: microbe, parasite or virus in culture; settings: for MIC in 0.2% albumin and 0.01% AcOH added CLSI standard condition, MDR P. aeruginosa: CAMHB plus 0.2% bovine serum albumin and 0.01% acetic acid, values marked * in Table 2; for Minimum inhibitory concentrations, MDR P. aeruginosa: CLSI broth microdilution, CAMHB with 50 mg/L Ca2+, 10 mg/L Mg2+, 5 × 10^5 CFU/ml, 18 h 37 °C, no visible turbidity, triplicate, strain CCARM 2180
Outline: (§1)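 MIC was read by eye as the lowest peptide concentration leaving no visible turbidity. Peptide and mid-log cells (final 5 × 10^5 CFU/ml) were combined in cation-adjusted Mueller–Hinton broth containing 50 mg/L calcium and 10 mg/L magnesium and incubated 18 h at 37 °C.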

MDR A. baumannii = assay: microbe, parasite or virus in culture; settings: for MIC in 0.2% albumin and 0.01% AcOH added CLSI standard condition, MDR A. baumannii: CAMHB plus 0.2% bovine serum albumin and 0.01% acetic acid, values marked * in Table 2
Outline: as §1

MDR E. faecalis = assay: microbe, parasite or virus in culture
Outline: as §1

MDR S. aureus = assay: microbe, parasite or virus in culture
Outline: as §1

A. baumannii strains = assay: microbe, parasite or virus in culture
Protocol: Twenty-six A. baumannii strains were clinically isolated and gifted to us by the Kyungpook National University School of Medicine. One A. baumannii strain (ATCC 17978) was purchased and gifted to us by Kyungpook National University School of Medicine. One A. baumannii strain and 10 K. pneumoniae strains (NCCP) were purchased from the National Culture Collection for Pathogens.
To assess antimicrobial activity, the MIC50 and MIC90 were measured using broth microdilution following CLSI guidelines. […] Each experiment was performed in triplicate. Meropenem (Sigma, Darmstadt, Germany) and colistin were used as control antibiotics. Cation-adjusted Mueller–Hinton broth (CAMHB) (Becton, Dickinson and Company, Franklin Lakes, USA) with supplied calcium (50 mg/L) and magnesium (10 mg/L) was used for the CLSI-test condition. Bacteria in midlog phase and peptides were separately diluted in CAMHB. The bacteria and peptide solutions were then mixed in 96-well polyethylene plates (SPL, Gyeonggi-do, Korea) and incubated for 18 h at 37 °C. The final concentration for bacteria was 5 × 10^5 CFU/ml. […] The MIC was defined to be the lowest concentration of peptide without visible turbidity by comparing with control antibiotics with the unaided eye. […] Each experiment was performed in triplicate. MICs in albumin and acetic acid solutions were measured using the same protocol but with 0.2% bovine serum albumin (Bovogen, Keilor, Australia), 0.01% acetic acid (Merck, New Jersey, USA), and CAMHB with both calcium and magnesium. In addition, MICs used in the antibiotic resistance acquisition test, the outer–inner membrane permeation test, and the transmembrane potential test and for FE-SEM were individually determined. The final bacterial concentrations used were as follows: for resistance acquisition, optical density (OD) 0.01; for outer–inner membrane permeability assays (LB), OD 0.1; for the transmembrane potential test, 1 × 10^8 CFU/ml (OD 0.171); […]. Inhibitory activity unidentifiable by direct observation was determined by counting the CFUs. Each experiment was performed at least twice.

[1] = CAMHB plus 0.2% bovine serum albumin and 0.01% acetic acid, values marked * in Table 2

Substance: WLVWIWRRR-NH2 [LWCopW29]
- ΔS (DMPC:DMPG liposomes; 1st run): 19.4 cal/moldeg
- ΔS (DMPC:DMPG liposomes; 2nd run): 19.4 cal/moldeg
- MIC in 0.2% albumin and 0.01% AcOH added CLSI standard condition, MDR P. aeruginosa (MDR P. aeruginosa): 20 µM
- Minimum inhibitory concentrations, MDR P. aeruginosa (MDR P. aeruginosa): > 20 µM
- MIC in 0.2% albumin and 0.01% AcOH added CLSI standard condition, MDR A. baumannii (MDR A. baumannii): 0.31 µM
- Minimum inhibitory concentrations, MDR A. baumannii (MDR A. baumannii; CLSI broth microdilution, CAMHB with 50 mg/L Ca2+, 10 mg/L Mg2+, 5 × 10^5 CFU/ml, 18 h 37 °C, triplicate, strain ATCC BAA-1605): 1.25 µM
- MIC in 0.2% albumin and 0.01% AcOH added CLSI standard condition, MDR E. faecalis (MDR E. faecalis; [1]): 1.25 µM
- Minimum inhibitory concentrations, MDR E. faecalis (MDR E. faecalis; CLSI broth microdilution, CAMHB with 50 mg/L Ca2+, 10 mg/L Mg2+, 5 × 10^5 CFU/ml, 18 h 37 °C, triplicate, strain ATCC 51575): 5 µM
- MIC in 0.2% albumin and 0.01% AcOH added CLSI standard condition, MDR S. aureus (MDR S. aureus; [1]): 1.25 µM
- Minimum inhibitory concentrations, MDR S. aureus (MDR S. aureus; CLSI broth microdilution, CAMHB with 50 mg/L Ca2+, 10 mg/L Mg2+, 5 × 10^5 CFU/ml, 18 h 37 °C, triplicate, strain KCCM 40510): 5 µM
- Increase of MIC when the S. aureus concentration was increased 200-fold (MDR S. aureus; S. aureus): twofold

Substance: Colistin
- MIC50 (A. baumannii strains; 30 A. baumannii strains, including 27 carbapenem-resistant, CLSI broth microdilution): 0.63 µM
- MIC, A. baumannii ATCC 17978 (A. baumannii strains; CLSI): 0.63 µM
- MIC, A. baumannii ATCC BBA 1605 (A. baumannii strains; CLSI): 0.63 µM
- MIC, A. baumannii Isolated strain 1 (A. baumannii strains; CLSI): 0.63 µM
- MIC, A. baumannii Isolated strain 3 (A. baumannii strains; CLSI): > 20 µM
- MIC, A. baumannii Isolated strain 6 (A. baumannii strains; CLSI): 2.5 µM
- MIC, A. baumannii Isolated strain 10 (A. baumannii strains; CLSI): 2.5 µM
- MIC, A. baumannii Isolated strain 14 (A. baumannii strains; CLSI): 1.25 µM
- MIC, A. baumannii Isolated strain 15 (A. baumannii strains; CLSI): 0.63 µM
- MIC, A. baumannii Isolated strain 16 (A. baumannii strains; CLSI): < 0.31 µM
- MIC, A. baumannii Isolated strain 19 (A. baumannii strains; CLSI): < 0.31 µM
- MIC, A. baumannii Isolated strain 22 (A. baumannii strains; CLSI): 1.25 µM
- MIC, A. baumannii Isolated strain 39 (A. baumannii strains; CLSI): < 0.31 µM
- MIC, A. baumannii Isolated strain 44 (A. baumannii strains; CLSI): 1.25 µM
- MIC, A. baumannii Isolated strain 66 (A. baumannii strains; CLSI): 1.25 µM
- MIC, A. baumannii Isolated strain 68 (A. baumannii strains; CLSI): 0.63 µM
- MIC, A. baumannii Isolated strain 69 (A. baumannii strains; CLSI): 1.25 µM
- MIC, A. baumannii Isolated strain 71 (A. baumannii strains; CLSI): 1.25 µM
- MIC, A. baumannii Isolated strain 76 (A. baumannii strains; CLSI): < 0.31 µM
- MIC, A. baumannii Isolated strain 80 (A. baumannii strains; CLSI): 0.63 µM
- MIC, A. baumannii Isolated strain 82 (A. baumannii strains; CLSI): 0.63 µM
- MIC, A. baumannii Isolated strain 86 (A. baumannii strains; CLSI): 0.63 µM
- MIC, A. baumannii Isolated strain 89 (A. baumannii strains; CLSI): 2.5 µM
- MIC, A. baumannii Isolated strain 102 (A. baumannii strains; CLSI): 0.63 µM
- MIC, A. baumannii Isolated strain 127 (A. baumannii strains; CLSI): 0.63 µM
- MIC, A. baumannii Isolated strain 141 (A. baumannii strains; CLSI): < 0.31 µM
- MIC, A. baumannii Isolated strain 144 (A. baumannii strains; CLSI): 0.63 µM
- MIC, A. baumannii Isolated strain 147 (A. baumannii strains; CLSI): 5 µM
- MIC, A. baumannii Isolated strain 152 (A. baumannii strains; CLSI): 1.25 µM
- MIC, A. baumannii KCCM 40203 (A. baumannii strains; CLSI): 0.63 µM
- MIC, A. baumannii NCCP 14654 (A. baumannii strains; CLSI): 1.25 µM
- Number of A. baumannii strains at MIC (μM) 0.63 (A. baumannii strains; of 30 strains): 12
- Number of A. baumannii strains at MIC (μM) 1.25 (A. baumannii strains; of 30 strains): 8
- Number of A. baumannii strains at MIC (μM) 2.5 (A. baumannii strains; of 30 strains): 3
- Number of A. baumannii strains at MIC (μM) 5 (A. baumannii strains; of 30 strains): 1
- Number of A. baumannii strains at MIC (μM) 10 (A. baumannii strains; of 30 strains): 0
- Number of A. baumannii strains at MIC (μM) ≤0.31 (A. baumannii strains; of 30 strains): 5
- Number of A. baumannii strains at MIC (μM) ≥20 (A. baumannii strains; of 30 strains): 1
- MIC in 0.2% albumin and 0.01% AcOH added CLSI standard condition, MDR P. aeruginosa (MDR P. aeruginosa): ≤ 0.15 µM
- Minimum inhibitory concentrations, MDR P. aeruginosa (MDR P. aeruginosa): 1.25 µM and 0.63 µM
- MIC in 0.2% albumin and 0.01% AcOH added CLSI standard condition, MDR A. baumannii (MDR A. baumannii): ≤ 0.15 µM
